Measured values from ChEMBL document CHEMBL6114975, “Discovery of 2,4-quinazolinedione derivatives as LC3B recruiters in the facilitation of protein complex degradations” (Eur J Med Chem, 2025).

Key:
[1] = target: Cyclin-dependent kinase 9 (Homo sapiens) (UniProt P50750); conditions: dose 100.0 nM
Description: Inhibition of CDK9 (unknown origin) at 100 nM relative to control

[2] = target: Cyclin-dependent kinase 9 (Homo sapiens) (UniProt P50750); conditions: dose 10.0 nM
Description: Inhibition of CDK9 (unknown origin) at 10 nM relative to control

[3] = tested on: WSUDLCL2; assay: Antiproliferative activity against human WSUDLCL2 cells

Chain of Cyclin-dependent kinase 9 (Homo sapiens) (P50750 whole entry): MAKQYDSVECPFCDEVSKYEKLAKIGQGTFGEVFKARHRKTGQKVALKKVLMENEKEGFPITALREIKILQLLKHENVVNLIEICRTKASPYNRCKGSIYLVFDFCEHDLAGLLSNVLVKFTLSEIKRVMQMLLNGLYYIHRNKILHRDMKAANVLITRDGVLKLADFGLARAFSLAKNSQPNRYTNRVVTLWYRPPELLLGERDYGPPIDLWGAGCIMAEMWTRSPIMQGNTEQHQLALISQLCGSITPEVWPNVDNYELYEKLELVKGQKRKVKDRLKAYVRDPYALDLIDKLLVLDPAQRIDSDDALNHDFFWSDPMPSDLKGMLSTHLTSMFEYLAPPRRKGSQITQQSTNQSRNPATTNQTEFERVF

inhibition [1] | inhibition [2] | Compound | IC50 [3]
82% | -2% | CCn1c(=O)c2ccc(Cl)cc2n(CCCN2CCC(C(=O)Nc3ncc(SCc4ncc(C(C)(C)C)o4)s3)CC2)c1=O | 332 nM
83% | 22% | CC(C)(C)c1cnc(CSc2cnc(NC(=O)C3CCNCC3)s2)o1 [BMS-387032] | 201 nM
84% | 19% | CC(C)(C)c1cnc(CSc2cnc(NC(=O)C3CCN(CCCn4c(=O)n(Cc5ccccc5)c(=O)c5cccnc54)CC3)s2)o1 | 326 nM
83% | 27% | CCn1c(=O)c2cccnc2n(CCCN2CCC(C(=O)Nc3ncc(SCc4ncc(C(C)(C)C)o4)s3)CC2)c1=O | 39 nM
85% | 13% | CC(C)(C)c1cnc(CSc2cnc(NC(=O)C3CCN(CCCn4c(=O)n(Cc5ccncc5)c(=O)c5ccc(Cl)cc54)CC3)s2)o1 | 82 nM
88% | 30% | CC(C)(C)c1cnc(CSc2cnc(NC(=O)C3CCN(CCCn4c(=O)n(Cc5ccncc5)c(=O)c5cccnc54)CC3)s2)o1 | 13 nM
13% |  | CC(C)(C)c1cnc(CSc2cnc(NC(=O)C3CCN(CC(=O)NCCOCCOCCOCCNc4cccc5c4C(=O)N(C4CCC(=O)NC4=O)C5=O)CC3)s2)o1 (stereo not given) | 310 nM
